In patent US6525001B1, “Substituted pyrimidine and pyridine herbicides” (Mid-American Commercialization Corporation, priority 1997, dated 2003):

Assays:
Format in all cases: in vivo
[1] = system: bedstraw (Galium aparine); assay: Test B pre-/postemergence; set-up: key: 0 is no effect; 10 is complete control
Outline: (§1)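 Scored visually 0 (none) to 10 (complete control) against untreated plants after twelve to sixteen greenhouse days. Test chemicals, formulated in surfactant-containing non-phytotoxic solvent, applied to soil after planting and, separately, onto 1- to 4-leaf (2–18 cm) plants.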

[2] = system: rape (Brassica napus); assay: Test B pre-/postemergence; set-up: key: 0 is no effect; 10 is complete control
Outline: as §1

[3] = system: common purslane (Portulaca oleracea); assay: Test E pre-/postemergence/post directed; set-up: key: 0 is no effect; 100 is complete control
Outline: (§2)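 Injury scored visually on a 0–100 scale (100 = complete control) 13 to 21 days after treatment. Test chemicals, formulated with surfactant in non-phytotoxic solvent, were applied to soil within one day of planting, to plants at two to four leaves (three to twenty cm), or as directed spray at plant base.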

[4] = system: sourgrass (Trichachne insularis); assay: Test E pre-/postemergence/post directed; set-up: key: 0 is no effect; 100 is complete control
Outline: as §2

[5] = system: common groundsel (Senecio vulgaris); assay: Test E pre-/postemergence/post directed; set-up: key: 0 is no effect; 100 is complete control; conditions: PREEMERGENCE
Outline: as §2

[6] = system: large crabgrass (Digitaria sanguinalis); assay: Test E pre-/postemergence/post directed; set-up: key: 0 is no effect; 100 is complete control; conditions: PREEMERGENCE
Outline: as §2

[7] = system: tall mallow (Malva sylvestris); assay: Test E pre-/postemergence/post directed; set-up: key: 0 is no effect; 100 is complete control; conditions: PREEMERGENCE
Outline: as §2

[8] = system: surinam grass (Brachiaria decumbens); assay: Test E pre-/postemergence/post directed; set-up: key: 0 is no effect; 100 is complete control; conditions: PREEMERGENCE, Rate 250 g/ha
Outline: as §2

[9] = system: bermudagrass (Cynodon dactylon); assay: Test E pre-/postemergence/post directed; set-up: key: 0 is no effect; 100 is complete control; conditions: PREEMERGENCE
Outline: as §2

[10] = system: smallflower flatsedge (Cyperus difformis); assay: Test B flood test; conditions: for Plant response rating, S. Flatsedge: Postemergence (flood test species)
Outline: (§3)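 Flood test on plants grown to the 2-leaf stage; treated plants kept in greenhouse twelve to sixteen days, then visually rated against controls on a 0 (no effect) to 10 (complete control) scale.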

[11] = system: bamyardgrass (Echinochloa crus-galli); assay: Test B flood test; conditions: for Plant response rating, Barnyardgrass: Postemergence (flood test species)
Outline: as §3

[12] = system: duck salad (Heteranthera limosa); assay: Test B flood test; conditions: for Plant response rating, Ducksalad: Postemergence (flood test species)
Outline: as §3

[13] = system: rice (Oryza sativa); assay: Test B flood test; conditions: for Plant response rating, Rice: Postemergence (flood test species)
Outline: as §3

[14] = system: lambsquarters (Chenopodium album); assay: Test C; set-up: key: 0 was no effect; 100 was complete control; conditions: PREEMERGENCE
[15] = Preemergence, Rate 62 g/ha, scale of 0 to 10
[16] = Rate 62 g/ha, Postemergence (flood test)
[17] = Rate 125 g/ha, Postemergence section (flood test species)

In the case of `Cc1cnc(-n2cnc(C(F)(F)F)n2)nc1C(=O)c1cccc(C(F)(F)F)c1` [Compound 67], the “Plant response rating, Bedstraw” value [1, 15] was 7, the “Bedstraw plant response rating” value ([1]; Rate 62 g/ha, Postemergence) was 9 and the “Bedstraw plant response rating” value ([1]; Rate 125 g/ha, Postemergence) was 9. The “Plant response rating, Bedstraw” value ([1]; Rate 125 g/ha, Preemergence) was 9, the “Plant response rating, Bedstraw” value ([1]; Rate 250 g/ha, Postemergence) was 10 and the “Plant response rating, Bedstraw” value ([1]; Rate 250 g/ha, Preemergence) was 9. The “Plant response rating, Bedstraw” value ([1]; Rate 500 g/ha, Postemergence) was 10, the “Plant response rating, Bedstraw” value ([1]; Rate 500 g/ha, Preemergence) was 10 and the “Plant response rating, Rape” value [2, 15] was 7. For the same molecule, the “Rape plant response rating” value ([2]; Rate 62 g/ha, Postemergence) was 6, the “Rape plant response rating” value ([2]; Rate 125 g/ha, Postemergence) was 8 and the “Plant response rating, Rape” value ([2]; Rate 125 g/ha, Preemergence) was 9. The “Plant response rating, Rape” value ([2]; Rate 250 g/ha, Postemergence) was 8, the “Plant response rating, Rape” value ([2]; Rate 250 g/ha, Preemergence) was 10 and the “Plant response rating, Rape” value ([2]; Rate 500 g/ha, Postemergence) was 9. The “Plant response rating, Rape” value ([2]; Rate 500 g/ha, Preemergence) was 10, the “Plant response rating, Com. purslane” value ([3]; PREEMERGENCE, Rate 32 g/ha) was 80 and the “Plant response rating, Com. purslane” value ([3]; PREEMERGENCE, Rate 64 g/ha) was 100. The “Plant response rating, Com. purslane” value ([3]; PREEMERGENCE, Rate 125 g/ha) was 100, the “Plant response rating, Com. purslane” value ([3]; PREEMERGENCE, Rate 250 g/ha) was 100 and the “Plant response rating, Sourgrass” value ([4]; PREEMERGENCE, Rate 32 g/ha) was 98. For the same molecule, the “Plant response rating, Sourgrass” value ([4]; PREEMERGENCE, Rate 64 g/ha) was 100, the “Plant response rating, Sourgrass” value ([4]; PREEMERGENCE, Rate 125 g/ha) was 100 and the “Plant response rating, Sourgrass” value ([4]; PREEMERGENCE, Rate 250 g/ha) was 100. For the same molecule, the “Plant response rating, Com. groundsel” value ([5]; Rate 250 g/ha) was 100, the “Plant response rating, Large crabgrass” value ([6]; Rate 250 g/ha) was 100 and the “Plant response rating, Tall Mallow” value ([7]; Rate 32 g/ha) was 80. The “Plant response rating, Tall Mallow” value ([7]; Rate 64 g/ha) was 90, the “Plant response rating, Tall Mallow” value ([7]; Rate 125 g/ha) was 90 and the “Plant response rating, Tall Mallow” value ([7]; Rate 250 g/ha) was 98. The “Plant response rating, Surinam grass” value [8] was 100, the “Plant response rating, Bermudagrass” value ([9]; Rate 250 g/ha) was 100 and the “S. Flatsedge plant response rating” value [10, 16] was 5. For the same molecule, the “S. Flatsedge plant response rating” value [10, 17] was 8, the “Plant response rating, S. Flatsedge” value ([10]; Rate 250 g/ha) was 9 and the “Plant response rating, S. Flatsedge” value ([10]; Rate 500 g/ha) was 9. For the same molecule, the “Barnyardgrass plant response rating” value [11, 16] was 3, the “Barnyardgrass plant response rating” value [11, 17] was 3 and the “Plant response rating, Barnyardgrass” value ([11]; Rate 250 g/ha) was 5. The “Plant response rating, Barnyardgrass” value ([11]; Rate 500 g/ha) was 6, the “Ducksalad plant response rating” value [12, 16] was 3 and the “Ducksalad plant response rating” value [12, 17] was 4. For the same molecule, the “Plant response rating, Ducksalad” value ([12]; Rate 250 g/ha) was 6, the “Plant response rating, Ducksalad” value ([12]; Rate 500 g/ha) was 8 and the “Rice plant response rating” value [13, 16] was 1. For the same molecule, the “Rice plant response rating” value [13, 17] was 2, the “Plant response rating, Rice” value ([13]; Rate 250 g/ha) was 2 and the “Plant response rating, Rice” value ([13]; Rate 500 g/ha) was 4.

In the case of `Cc1cnc(-c2ccc(C(F)(F)F)cc2)nc1Cc1cccc(C(F)(F)F)c1` [Example 1, 5-methyl-2-[4-(trifluoromethyl)phenyl]-4-[[3-(trifluoromethyl)phenyl]methyl]pyrimidine], the “Plant response rating, Bedstraw” value ([1]; Rate 62 g/ha, Postemergence) was 9, the “Bedstraw plant response rating” value ([1]; Rate 62 g/ha, Preemergence) was 8 and the “Plant response rating, Bedstraw” value ([1]; Rate 125 g/ha, Postemergence) was 9. The “Bedstraw plant response rating” value ([1]; Rate 125 g/ha, Preemergence) was 8, the “Plant response rating, Bedstraw” value ([1]; Rate 250 g/ha, Postemergence) was 9 and the “Plant response rating, Bedstraw” value ([1]; Rate 250 g/ha, Preemergence) was 8. The “Plant response rating, Bedstraw” value ([1]; Rate 500 g/ha, Postemergence) was 10, the “Plant response rating, Bedstraw” value ([1]; Rate 500 g/ha, Preemergence) was 9 and the “Plant response rating, Rape” value ([2]; Rate 62 g/ha, Postemergence) was 9. For the same molecule, the “Rape plant response rating” value ([2]; Rate 62 g/ha, Preemergence) was 10, the “Plant response rating, Rape” value ([2]; Rate 125 g/ha, Postemergence) was 9 and the “Rape plant response rating” value ([2]; Rate 125 g/ha, Preemergence) was 10. For the same molecule, the “Plant response rating, Rape” value ([2]; Rate 250 g/ha, Postemergence) was 9, the “Plant response rating, Rape” value ([2]; Rate 250 g/ha, Preemergence) was 10 and the “Plant response rating, Rape” value ([2]; Rate 500 g/ha, Postemergence) was 9. For the same molecule, the “Plant response rating, Rape” value ([2]; Rate 500 g/ha, Preemergence) was 10, the “Plant response rating, Com. purslane” value ([3]; POSTEMERGENCE, Rate 250 g/ha) was 40 and the “Plant response rating, Com. purslane” value ([3]; PREEMERGENCE, Rate 32 g/ha) was 98. The “Plant response rating, Com. purslane” value ([3]; PREEMERGENCE, Rate 64 g/ha) was 100, the “Plant response rating, Com. purslane” value ([3]; PREEMERGENCE, Rate 125 g/ha) was 100 and the “Plant response rating, Com. purslane” value ([3]; PREEMERGENCE, Rate 250 g/ha) was 100. For the same molecule, the “Plant response rating, Sourgrass” value ([4]; POSTEMERGENCE, Rate 250 g/ha) was 30, the “Plant response rating, Sourgrass” value ([4]; PREEMERGENCE, Rate 32 g/ha) was 100 and the “Plant response rating, Sourgrass” value ([4]; PREEMERGENCE, Rate 64 g/ha) was 100. For the same molecule, the “Plant response rating, Sourgrass” value ([4]; PREEMERGENCE, Rate 125 g/ha) was 100, the “Plant response rating, Sourgrass” value ([4]; PREEMERGENCE, Rate 250 g/ha) was 100 and the “Plant response rating, Com. groundsel” value ([5]; Rate 64 g/ha) was 100. For the same molecule, the “Plant response rating, Com. groundsel” value ([5]; Rate 125 g/ha) was 100, the “Plant response rating, Com. groundsel” value ([5]; Rate 250 g/ha) was 100 and the “Plant response rating, Large crabgrass” value ([6]; Rate 32 g/ha) was 100. The “Plant response rating, Large crabgrass” value ([6]; Rate 64 g/ha) was 100, the “Plant response rating, Large crabgrass” value ([6]; Rate 125 g/ha) was 100 and the “Plant response rating, Large crabgrass” value ([6]; Rate 250 g/ha) was 100. The “Plant response rating, Tall Mallow” value ([7]; Rate 32 g/ha) was 100, the “Plant response rating, Tall Mallow” value ([7]; Rate 64 g/ha) was 100 and the “Plant response rating, Tall Mallow” value ([7]; Rate 125 g/ha) was 100. The “Plant response rating, Tall Mallow” value ([7]; Rate 250 g/ha) was 100, the “Plant response rating, Surinam grass” value [8] was 100 and the “Plant response rating, Bermudagrass” value ([9]; Rate 32 g/ha) was 100. For the same molecule, the “Plant response rating, Bermudagrass” value ([9]; Rate 64 g/ha) was 100, the “Plant response rating, Bermudagrass” value ([9]; Rate 125 g/ha) was 100 and the “Plant response rating, Bermudagrass” value ([9]; Rate 250 g/ha) was 100. For the same molecule, the “Plant response rating, Lambsquarters” value ([14]; Rate 35 g/ha) was 100, the “Plant response rating, Lambsquarters” value ([14]; Rate 70 g/ha) was 100 and the “Plant response rating, Lambsquarters” value ([14]; Rate 140 g/ha) was 100.
